Results taken from US20220372040A1, “METTL3 MODULATORS” (Accent Therapeutics, Inc., priority 2020, published 2022).
Where two headings read alike, the source gives them in different places.

Key:
METTL3/METTL14 = METTL3/METTL14 (Homo sapiens, UniProt Q86U44); test: METTL3-14 standard enzyme assay (3H-SAM flashplate scintillation); assay type: biochemical; details: METTL3/METTL14 2.5 nM, RNA 100 nM, 3H-SAM 100 nM, 30 min
In short: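 Radiometric methylation readout: biotinylated RNA substrate UCUGGACUAAA and 3H-SAM, each 100 nM final, reacted 30 min at ambient temperature with 2.5 nM enzyme complex after 5 min compound preincubation (HEPES pH 7.5 buffer, KCl, MgCl2, DTT). Excess unlabelled SAM (15 μM) stopped reactions before streptavidin flashplate capture.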

[1] = system: m^6 A in cellular mRNA of MOLM-13 cells; test: m^6 A-mRNA LC-MS/MS assay (m^6 A cellular assay); assay type: cell-based; details: Homo sapiens, 24 hours incubation, LC-MS/MS of m^6 A/A in mRNA
Method: m^6 A-mRNA LC-MS/MS Assay
5×10^6 MOLM-13 (DSMZ) cells were seeded into 10 cm dishes in RPMI 1640 media containing 10% fetal bovine serum and placed in a humidified tissue culture incubator at 37° C. overnight. Compounds were resuspended in 100% DMSO and dosed into each dish at a fixed concentration to comprise an 8-point dose response with a 4-fold serial dilution ranging from 25 μM to 1.5 nM in 0.25% DMSO final and allowed to incubate for 24 hours in a humidified tissue culture incubator at 37° C. Cells were harvested by centrifugation followed by mRNA extraction using DTRECT Dynabeads mRNA DTRECT kit (Life Technologies). mRNA was quantified on NanoDrop spectrophotometer (Thermo Fisher Scientific) and digested into single nucleosides using Nucleoside Digestion Mix (New England Biolabs). Nucleosides are quantified with retention time on a BEH […] column (Waters) and the nucleoside-to-base ion mass transition of 282.1-150.1 (m^6 A) and 268-136 (A) on an API 6500+ triple quadrupole mass spectrometer. Quantification is performed in comparison with the standard curve, obtained from pure nucleoside standards (Selleck Chemicals) running with the same batch of samples. Percentage m^6 A in cellular mRNA is calculated as 100*(m^6 A/A).

MOLM-13 cells = test: MOLM-13 96 Hour cell proliferation assay (Cell Titer-Glo); assay type: cell-based; details: Homo sapiens
Method: MOLM-13 96 Hour Cell Proliferation Assay
MOLM-13 (DSMZ) cells were seeded at 600 cells per well in a volume of 44 μL in a Greiner Bio-One CELLSTAR™ 384 Well Polystyrene Cell Culture clear bottom microplate in RPMI 1640 media containing 10% fetal bovine serum using a Multidrop Combi (ThermoFisher Scientific). Cells were incubated overnight at 37° C. in a humidified tissue culture incubator. To prevent evaporation or to reduce edge effect, add 50 μL or more H2O to an empty plate, cover, and place on top of the cell plates. The Mosquito® HTS Liquid Handler was used to make a compound/media intermediate plate by aliquoting 1 μL of compound from the initial compound dilution plate (concentrations ranging from 10.0 mM to 38.0 nM in 100% DMSO) into Bio-One 384-well polypropylene conical bottom microplate containing 49 μL of media containing the appropriate serum (50-fold dilution, 2% DMSO, compound concentrations ranging from 200.0 μM and […]). The Apricot liquid handling system was used to transfer 6.2 μL compounds from the intermediate plate into the seeding plate containing 44 μL cells (8-fold dilution spanning concentrations 25.0 μM to […], 0.25% DMSO final), and placed in a humidified tissue culture incubator at 37° C. After 96 hours, 25 μL of Cell Titer-Glo reagent (Promega) was added to each well using an Integra liquid handling system. The plate was protected from light using TopSeal-A (Black) film over the entire plate, added White Bottom seal film on the bottom of the entire plate for a better reading on the Envision, and placed on an IKA plate shaker for at 300 rpm for 10 minutes at room temperature. The plate was read on an EnVision plate reader (Perkin Elmer) using the Ultra Sensitive Luminescence protocol. Data analysis was performed by normalizing the raw luminescence units to an average of the positive control values for staurosporine (100% cell death) and the negative control values for DMSO (0% cell death). An IC50 was calculated using a 4-parameter logistic nonlinear regression model in GraphPad Prism.

PRMT5-MEP50 = PRMT5-MEP50 (Homo sapiens, UniProt O14744); test: PRMT5 assay (3H-SAM flashplate scintillation); assay type: biochemical; details: PRMT5-MEP50 2.5 nM, histone H4 peptide 100 nM, 3H-SAM 250 nM, 60 min
In short: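 Radiometric methyltransferase read-out: after 60 min reaction, excess unlabelled SAM (15 μM) stops turnover and biotinylated H4 peptide (100 nM) carrying 3H-methyl from 250 nM 3H-SAM is captured on streptavidin flashplates (2 h, 25° C) for scintillation counting. Enzyme, 2.5 nM PRMT5-MEP50, was preincubated 5 min with compound in pH 8.0 Tris buffer with DTT and Tween.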

METTL16 = target: T1, METTL16 (Homo sapiens, UniProt Q86W50); test: METTL16 assay (3H-SAM flashplate scintillation); assay type: biochemical; details: METTL16 100 nM, RNA 50 nM, 3H-SAM 200 nM, SAM 800 nM, 20 min
T1 sequence (Q86W50 1-562): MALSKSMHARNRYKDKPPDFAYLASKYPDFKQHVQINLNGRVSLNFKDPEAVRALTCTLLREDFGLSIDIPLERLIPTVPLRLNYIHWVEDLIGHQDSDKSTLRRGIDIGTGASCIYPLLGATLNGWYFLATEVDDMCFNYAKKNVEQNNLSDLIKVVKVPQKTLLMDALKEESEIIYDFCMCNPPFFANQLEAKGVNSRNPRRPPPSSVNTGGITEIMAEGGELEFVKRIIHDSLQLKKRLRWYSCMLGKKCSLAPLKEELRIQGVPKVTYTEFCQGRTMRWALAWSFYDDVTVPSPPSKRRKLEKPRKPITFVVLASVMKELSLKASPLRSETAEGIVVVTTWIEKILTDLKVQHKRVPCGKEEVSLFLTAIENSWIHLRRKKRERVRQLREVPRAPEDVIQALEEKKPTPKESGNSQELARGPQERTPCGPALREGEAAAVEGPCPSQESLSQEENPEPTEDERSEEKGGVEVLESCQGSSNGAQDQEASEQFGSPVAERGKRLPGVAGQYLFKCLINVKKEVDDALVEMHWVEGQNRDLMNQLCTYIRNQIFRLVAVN
In short: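 Radiometric methyltransferase reaction at ambient temperature in 20 mM HEPES pH 7.5, 50 mM KCl, 1 mM DTT, with 100 nM enzyme preincubated 5 min with compound. It was started with 50 nM 3′-biotinylated RNA, 200 nM 3H-SAM plus 800 nM cold SAM, run 20 min, then quenched with excess cold SAM. Product was captured on streptavidin flashplates and scintillation-counted.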

METTL1/WDR4 = METTL1/WDR4 (Homo sapiens, UniProt Q9UBP6); test: METTL1 assay (3H-SAM flashplate scintillation); assay type: biochemical
In short: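 Radiometric methyltransfer by METTL1/WDR4 (6.25 nM f.c., 5 min preincubation) at ambient temperature in HEPES pH 7.5, KCl, MgCl2, DTT; started with 25 nM 3′-biotinylated RNA and 60 nM 3H-SAM, run 20 min, quenched with 15 μM cold SAM. Product captured on streptavidin flashplates (2 h, 25° C), counted by scintillation.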

[2] = METTL1/WDR4 6.25 nM, RNA 25 nM, 3H-SAM 60 nM, 20 min, read-out: METTL1 IC50

METTL1/WDR4, sequence (Q9UBP6 whole entry, species assumed): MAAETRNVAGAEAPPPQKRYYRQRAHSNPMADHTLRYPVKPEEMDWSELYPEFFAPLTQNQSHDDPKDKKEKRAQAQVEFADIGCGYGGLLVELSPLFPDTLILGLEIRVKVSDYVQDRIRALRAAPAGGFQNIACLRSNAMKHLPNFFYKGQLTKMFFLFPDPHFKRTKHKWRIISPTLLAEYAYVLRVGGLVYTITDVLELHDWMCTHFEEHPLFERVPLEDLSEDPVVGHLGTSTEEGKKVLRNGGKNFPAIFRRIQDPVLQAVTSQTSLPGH
METTL1/WDR4, sequence (P57081 whole entry partner, species assumed): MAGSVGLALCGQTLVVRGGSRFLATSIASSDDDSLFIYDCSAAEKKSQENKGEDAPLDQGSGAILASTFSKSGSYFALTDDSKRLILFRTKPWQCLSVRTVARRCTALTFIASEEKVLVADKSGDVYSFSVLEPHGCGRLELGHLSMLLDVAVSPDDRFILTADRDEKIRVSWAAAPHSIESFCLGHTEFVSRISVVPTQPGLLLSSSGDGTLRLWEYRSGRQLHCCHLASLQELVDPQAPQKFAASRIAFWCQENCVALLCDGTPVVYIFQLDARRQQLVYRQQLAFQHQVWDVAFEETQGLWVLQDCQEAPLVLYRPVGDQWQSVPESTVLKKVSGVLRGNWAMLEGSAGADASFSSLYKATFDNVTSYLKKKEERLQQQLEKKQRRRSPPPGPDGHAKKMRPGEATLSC
PRMT5-MEP50, sequence (O14744 whole entry): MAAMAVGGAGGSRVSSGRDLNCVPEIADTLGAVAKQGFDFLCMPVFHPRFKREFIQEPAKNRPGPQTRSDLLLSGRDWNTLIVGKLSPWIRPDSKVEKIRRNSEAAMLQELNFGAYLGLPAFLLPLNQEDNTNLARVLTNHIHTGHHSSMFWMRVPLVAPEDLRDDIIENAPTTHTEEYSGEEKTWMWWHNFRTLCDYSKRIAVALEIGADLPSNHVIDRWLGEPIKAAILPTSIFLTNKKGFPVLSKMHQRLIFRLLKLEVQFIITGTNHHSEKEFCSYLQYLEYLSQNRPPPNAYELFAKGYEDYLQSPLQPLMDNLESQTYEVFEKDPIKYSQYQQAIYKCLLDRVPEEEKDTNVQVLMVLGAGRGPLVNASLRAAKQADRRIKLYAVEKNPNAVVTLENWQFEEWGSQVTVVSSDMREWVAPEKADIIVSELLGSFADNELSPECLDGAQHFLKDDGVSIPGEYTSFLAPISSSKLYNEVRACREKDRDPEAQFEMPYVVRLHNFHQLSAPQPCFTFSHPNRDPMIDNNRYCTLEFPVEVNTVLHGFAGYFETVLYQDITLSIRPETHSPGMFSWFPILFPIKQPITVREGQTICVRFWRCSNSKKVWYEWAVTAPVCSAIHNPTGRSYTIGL
PRMT5-MEP50, sequence (Q9BQA1 whole entry partner): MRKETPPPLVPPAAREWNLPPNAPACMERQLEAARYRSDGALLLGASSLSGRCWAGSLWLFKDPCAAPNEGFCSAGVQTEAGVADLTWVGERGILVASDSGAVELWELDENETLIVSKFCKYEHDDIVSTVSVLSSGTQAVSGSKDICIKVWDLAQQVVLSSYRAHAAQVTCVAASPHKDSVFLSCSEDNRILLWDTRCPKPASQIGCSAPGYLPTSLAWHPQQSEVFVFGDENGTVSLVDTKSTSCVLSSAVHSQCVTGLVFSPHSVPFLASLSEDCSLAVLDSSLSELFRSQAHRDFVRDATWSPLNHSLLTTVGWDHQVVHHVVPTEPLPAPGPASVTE
METTL3/METTL14, sequence (Q86U44 whole entry, species assumed): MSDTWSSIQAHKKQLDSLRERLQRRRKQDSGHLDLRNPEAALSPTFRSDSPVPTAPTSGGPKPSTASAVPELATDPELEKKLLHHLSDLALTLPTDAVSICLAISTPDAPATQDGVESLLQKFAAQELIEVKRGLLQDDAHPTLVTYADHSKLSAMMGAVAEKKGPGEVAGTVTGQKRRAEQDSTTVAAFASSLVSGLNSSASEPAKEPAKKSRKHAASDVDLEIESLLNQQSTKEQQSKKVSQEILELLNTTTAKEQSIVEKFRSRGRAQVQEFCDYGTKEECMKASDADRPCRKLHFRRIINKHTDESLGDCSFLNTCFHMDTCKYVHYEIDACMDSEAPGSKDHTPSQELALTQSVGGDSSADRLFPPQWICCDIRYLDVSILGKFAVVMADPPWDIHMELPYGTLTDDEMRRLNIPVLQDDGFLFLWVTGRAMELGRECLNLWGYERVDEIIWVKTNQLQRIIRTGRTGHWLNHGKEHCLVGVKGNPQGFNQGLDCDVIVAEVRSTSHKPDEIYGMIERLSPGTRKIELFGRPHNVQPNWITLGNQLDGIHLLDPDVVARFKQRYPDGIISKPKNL
METTL3/METTL14, sequence (Q9HCE5 whole entry partner, species assumed): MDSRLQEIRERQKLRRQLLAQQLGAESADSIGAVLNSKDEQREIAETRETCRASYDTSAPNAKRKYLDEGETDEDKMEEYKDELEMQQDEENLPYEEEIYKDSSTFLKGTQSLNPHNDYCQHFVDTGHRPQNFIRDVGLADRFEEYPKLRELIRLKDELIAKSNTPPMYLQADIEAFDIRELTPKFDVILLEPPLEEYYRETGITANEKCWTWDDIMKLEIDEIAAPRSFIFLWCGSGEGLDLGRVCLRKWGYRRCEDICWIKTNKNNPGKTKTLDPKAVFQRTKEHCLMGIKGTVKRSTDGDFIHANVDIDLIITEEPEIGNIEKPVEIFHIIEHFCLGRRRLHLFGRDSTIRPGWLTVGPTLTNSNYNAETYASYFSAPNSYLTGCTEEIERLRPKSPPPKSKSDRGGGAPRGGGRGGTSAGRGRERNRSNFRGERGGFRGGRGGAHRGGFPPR

IC50 (METTL3/METTL14) [nM]	IC50 [1] [nM]	IC50 (MOLM-13 cells) [nM]	IC50 (PRMT5-MEP50) [nM]	IC50 (METTL16) [nM]	SMILES	IC50 (METTL1/WDR4; [2]) [nM]	IC50 (METTL1/WDR4) [nM]
< 10	≥ 10000	1000 to 10000			CCc1cc(NCCN(C)C)c2c(F)cc(OCc3cncc(-n4cc(-c5ccn(C)n5)c5c(N)ncnc54)c3)cc2n1 [Compound I-230]		
100 to 1000		≥ 10000	> 1000	> 1000	Cc1cc(N)c2ccc(OCc3cncc(-n4ccc5c(N)ncnc54)c3)cc2n1 [Compound I-48]		
< 10	1000 to 10000	< 1000			CCc1cc(N(C)CCN(C)C)c2ccc(CCc3cncc(-n4cc(-c5ccn(C)n5)c5c(N)ncnc54)c3)cc2n1 [Compound I-155]		
< 10	1000 to 10000	< 1000			CCc1cc(NCCN(C)C)c2c(F)cc(CCc3cncc(-n4cc(-c5ccn(C)n5)c5c(N)ncnc54)c3)cc2n1 [Compound I-227]		
< 10	1000 to 10000	< 1000			CCc1cc(N(C)CC2CC2)c2ccc(OCc3cncc(-n4cc(-c5ccn(C)n5)c5c(N)ncnc54)c3)cc2n1 [Compound I-137]		
< 10		< 1000	> 1000		CCc1cc(NCCCN(C)C)c2ccc(OCc3cncc(-n4cc(-c5ccn(C)n5)c5c(N)ncnc54)c3)cc2n1 [Compound I-170]		
< 10		1000 to 10000	> 1000		Cc1nc(-c2cn(-c3cncc(COc4ccc5ccc(N6CCC6)nc5c4)c3)c3ncnc(N)c23)co1 [Compound I-239]		
< 10	≥ 10000		> 1000	> 1000	CCc1cc(N)c2ccc(OCc3cncc(-n4cc(Cl)c5c(N)ncnc54)c3)cc2n1 [Compound I-52]		
< 10		< 1000	> 1000		CCc1cc(N2CCCC2)c2ccc(OCc3cncc(-n4ccc5c(N)ncnc54)c3)cc2n1 [Compound I-109]		
< 10	1000 to 10000	< 1000			CCc1cc(NC)c2ccc(OCc3cncc(-n4cc(-c5ccn(C)n5)c5c(N)ncnc54)c3)cc2n1 [Compound I-135]		
< 10	< 1000	< 1000			Nc1ncnc2c1c([C@@H]1CCCO1)cn2-c1cncc(COc2ccc3ccc(N4CCC4)nc3c2)c1 [Compound I-145]		
< 10	1000 to 10000	< 1000			CCc1cc(NCCOC)c2ncc(OCc3cncc(-n4cc(-c5ccn(C)n5)c5c(N)ncnc54)c3)cc2n1 [Compound I-138]		
< 10	≥ 10000	< 1000			CCc1cc(N(C)C)c2ccc(OCc3cncc(-n4cc(-c5ccn(C)n5)c5c(N)ncnc54)c3)cc2n1 [Compound I-147]		
100 to 1000		1000 to 10000	> 1000	> 1000	Nc1ncnc2c1c(Cl)cn2-c1cncc(COc2ccc3ccc(NCC4CC4)nc3c2)c1 [Compound I-55]		
< 10		1000 to 10000	> 1000		Cn1ccc(-c2cn(-c3cncc(COc4ccc5ccc(N6CC(O)C6)nc5c4)c3)c3ncnc(N)c23)n1 [Compound I-193]		
< 10		≥ 10000	> 1000		CC(=O)c1cn(-c2cncc(COc3ccc4ccc(N5CCC5)nc4c3)c2)c2ncnc(N)c12 [Compound I-238]		
< 10		1000 to 10000	> 1000		Cn1ccc(-c2cn(-c3cncc(COc4ccc5ccc(N6CC(=O)C6)nc5c4)c3)c3ncnc(N)c23)n1 [Compound I-217]		
< 10	1000 to 10000	1000 to 10000			CNc1ccc2ccc(OCc3cncc(-n4cc(-c5ccc(CNCCS(C)(=O)=O)o5)c5c(N)ncnc54)c3)cc2n1 [Compound I-236]		
10 to 100		< 1000	> 1000		CCc1cc(N(C)C)c2ccc(OCc3cncc(-n4ccc5c(N)ncnc54)c3)cc2n1 [Compound I-232]		
< 10		< 1000	> 1000		Cn1ccc(-c2cn(-c3cncc(COc4ccc5ccc(N6CC(F)C6)nc5c4)c3)c3ncnc(N)c23)n1 [Compound I-192]		
< 10		< 1000	> 1000		Cn1ccc(-c2cn(-c3cncc(COc4ccc5ccc(N6CC(N)C6)nc5c4)c3)c3ncnc(N)c23)n1 [Compound I-213]		
< 10		< 1000	> 1000		CCc1cc(N2CCN(C)CC2)c2ccc(OCc3cncc(-n4ccc5c(N)ncnc54)c3)cc2n1 [Compound I-107]		

SMILES	IC50 (METTL3/METTL14) [nM]	IC50 [1] [nM]	IC50 (MOLM-13 cells) [nM]	IC50 (PRMT5-MEP50) [nM]	IC50 (METTL16) [nM]	IC50 (METTL1/WDR4; [2]) [nM]	IC50 (METTL1/WDR4) [nM]
CNc1ccc2ccc(CCc3cncc(-n4cc(C5CCCC5)c5c(N)ncnc54)n3)cc2n1 [Compound I-110]	< 10	1000 to 10000		> 1000	> 1000	> 1000	
CNc1ccc2ccc(OCc3cncc(-n4cc(C5CCCO5)c5c(N)ncnc54)c3)cc2n1 (centres unmarked) [Compound I-97]	< 10		< 1000	> 1000			> 1000
CNc1ccc2ccc(OCc3cncc(-n4cc(Cl)c5c(N)ncnc54)n3)cc2n1 [Compound I-20]	< 10	1000 to 10000		> 1000		> 1000	
CC(C)c1cc(N2CCC2)c2ccc(OCc3cncc(-n4ccc5c(N)ncnc54)c3)cc2n1 [Compound I-99]	< 10		< 1000	> 1000		> 1000	
